{"source": "patent US20170273917A1", "about": "“NMDA RECEPTOR ANTAGONISTS FOR TREATING GAUCHER DISEASE” (Yeda Research and Development Co. Ltd., priority 2014, published 2017)", "key": {"[1]": {"tested_on": "motor coordination of CBE-treated mice", "experiment": "Locomotor testing by the hanging wire test", "format": "in vivo, mouse", "source_text": "Locomotor testing—Locomotor coordination was weekly evaluated in the treated strains by the hanging wire test, a validated test for LSD mouse models (Alvarez et al. 2008). Briefly, the mouse was placed with forepaws at a center of a horizontal bar (3 mm diameter; 35 mm long).\nTo further characterize the effect of CBE treatment on the different strains, motor behavior was followed weekly using the hanging wire test, starting at postnatal day 21 for a period of 2 months. The hanging wire test evaluates coordination and locomotor function, wherein a high score means better coordination. […] Of note, strains PWD/PhJ and WSB/EiJ were excluded in the motor behavior analysis due to their wild behavior."}, "NMDA receptor [2]": {"tested_on": "NMDA receptor", "experiment": "Survival of Gba flox/flox; nestin-Cre mice (genetic nGD model) treated with memantine", "format": "in vivo, mouse", "details": "memantine 3 or 30 mg/kg day from P8 vs PBS", "source_text": "(§1) Mice—Pure inbred mouse strains were obtained from the Jackson laboratories (USA), Harlan UK and Harlan Israel. Specifically, BTBR T^+ Itpr3^tf/J C3H/HeJ, DBA/2J, MRL/MpJ, WSB/EiJ, MOLF/Ei, PWD/PhJ, KK/HiJ, BPL/1J, I/LnJ, BPN/3J, and LP/J were obtained from Jackson; A/J, AKR/J, NZW/LacJ, 129S1/SvImJ were obtained from Harlan laboratories in the UK; and C57BL/6JOlaHsd, BALB/cJ and FVB/NJ were obtained from the Harlan laboratories in Israel. Gba^flox/flox; nestin-Cre mice, a mouse model of GD were generated as described in Vitner et al. Nature Medicine (2014) 20: 204-208; and Enquist, I. B. et al. Proc. Natl. Acad. Sci. USA (2007) 104: 17483-17488. These mice recapitulate many features of human nGD, although their Gba1 deficiency is restricted to neural and macroglial lineages. Mice were maintained under specific pathogen-free conditions and handled according to protocols approved by the Weizmann Institute Animal Care Committee according to international guidelines.\n(§2) Treatment with NMDA receptor agonists and antagonists—All agonists and antagonists were administered daily from P8. D-cycloserine (Sigma) was administered daily at a dose of 200 mg/kg/day. MK-801 (Sigma) was administered daily at a dose of 0.3 mg/Kg/day. Memantine (Sigma) was administered daily at a dose of 3 or 30 mg/Kg/day. Ifenprodil (Sigma) was administered daily at a dose of 9 mg/Kg/day."}, "NMDA receptor [3]": {"tested_on": "NMDA receptor", "experiment": "Survival of CBE-treated mice given NMDA receptor agonists or antagonists", "format": "in vivo, mouse", "source_text": "as §1\nCBE injections—Conduritol-β-epoxide (CBE) was obtained from Calbiochem Millipore (Darmstadt, Germany). CBE at a dose of 25 mg or 50 mg per kg body weight per day or PBS (control) were administered i.p. to mice daily starting from postnatal day 8 (P8) of age.\nas §2"}, "GBA1": {"biological_target": "T1, GBA1 (Mus musculus, UniProt P17439)", "T1 construct": "from tissue; host or cells: mouse brain (frozen half-brain homogenate) of inbred strains treated in vivo with PBS, CBE or CBE plus memantine", "T1 sequence (P17439 20-515)": "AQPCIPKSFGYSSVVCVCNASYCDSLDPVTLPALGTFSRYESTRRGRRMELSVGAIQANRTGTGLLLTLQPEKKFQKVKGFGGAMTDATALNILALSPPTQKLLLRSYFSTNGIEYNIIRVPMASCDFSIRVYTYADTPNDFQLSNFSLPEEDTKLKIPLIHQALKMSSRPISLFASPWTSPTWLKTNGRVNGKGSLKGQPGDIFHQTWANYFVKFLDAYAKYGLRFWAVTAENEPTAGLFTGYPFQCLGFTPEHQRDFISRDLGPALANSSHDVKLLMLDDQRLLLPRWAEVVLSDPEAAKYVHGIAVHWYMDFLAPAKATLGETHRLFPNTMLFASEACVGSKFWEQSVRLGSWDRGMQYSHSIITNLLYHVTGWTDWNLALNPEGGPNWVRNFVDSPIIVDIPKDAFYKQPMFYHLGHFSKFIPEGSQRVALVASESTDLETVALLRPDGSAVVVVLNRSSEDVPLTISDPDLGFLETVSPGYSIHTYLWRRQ", "experiment": "GBA1 activity assay in brain homogenates of treated mice", "format": "in vivo", "details": "A/J mice, CBE plus memantine", "description": "GBA1 activity assay—GBA1 activity was performed as previously described (Farfel-Becker et al. Hum Mol Genet. 2014; 23(4):843-54). Briefly, frozen half-brain samples were sonicated in Mcllvaine's buffer (0.1 M citric acid, pH 4.2, 0.2 M Na2HPO4, 29:21, vol:vol). Tissue homogenates containing 50 μg of protein were incubated at 37° C. with 8 μM C6-NBD-GlcCer (Avanti Polar Lipids, Alabaster, Ala., USA) in a final volume of 25 μl Mcllvaine's buffer for 30 minutes. Lipids were extracted and the lower phase separated by thin layer chromatography using chloroform:methanol:9.8 mM CaCl2 (60:35:8, vol:vol:vol) as the developing solvent. C6-NBD-ceramide was identified with an authentic standard using a Typhoon 9410 variable mode imager and bands were quantified by Image-QuantTL (GE Healthcare, Chalfont St Giles, UK).\nTo eliminate the possibility that the phenotypic differences observed in the different mouse strains were caused by differential CBE metabolism in the brain, GBA1 enzymatic activity in mice treated for 10 days with CBE or PBS (control) was measured. […] Overall, the remaining GBA1 activity was 5-10% of the controls (FIG. 3A). There was no correlation between GBA1 activity in the brain and life spans neither in the PBS(R^2=0.126, data not shown) nor CBE conditions (R^2=0.0581, FIG. 3B). In addition, no correlation was found between inhibition of GBA1 activity and life span when evaluated according to strains (R^2=0.0085, data not shown)."}}}
{"compound": "CC12CC3CC(C)(C1)CC(N)(C3)C2.Cl", "note": "[Memantine, 3,5-Dimethyl-1-adamantanamine hydrochloride]", "values": [{"measurement": "progression of the motor dysfunction induced by CBE (hanging wire test)", "setting": "[1]; A/J mice, CBE plus memantine", "value": "delayed the progression of the motor dysfunction"}, {"measurement": "hanging wire test score", "setting": "[1]; memantine-treated CBE mice at postnatal day 49", "value": "the same score as CBE-treated mice at P21"}, {"measurement": "survival", "setting": "NMDA receptor [2]", "value": "significantly extended survival"}, {"measurement": "life span", "setting": "NMDA receptor [3]; memantine 3 mg/kg day plus CBE 25 mg/kg day, A/J, C3H/HeJ, DBA/2J and C57BL6/JolaHsd mice, daily from P8", "value": "significantly extended the life span"}, {"measurement": "survival", "setting": "NMDA receptor [3]; memantine 30 mg/kg/day, CBE 50 mg/kg/day, AJ mice, daily from P8", "value": "significantly extended survival"}, {"measurement": "increase of life span compared with MK-801", "setting": "NMDA receptor [3]; neuropathic GD (CBE-treated) mice", "value": "to a greater extent than MK-801"}, {"measurement": "interference with GBA1 inhibition in the brain", "setting": "GBA1; brains harvested P18 or P70", "value": "did not interfere with GBA1 inhibition"}, {"measurement": "cerebral GBA1 activity", "setting": "GBA1; postnatal day 70 (P70)", "value": "almost undetectable"}]}
{"compound": "CC(C(O)c1ccc(O)cc1)N1CCC(Cc2ccccc2)CC1.O=C(O)C(O)C(O)C(=O)O", "note": "(stereo not drawn) [Ifenprodil, α-(4-Hydroxyphenyl)-β-methyl-4-benzyl-1-piperidineethanol (+)-tartrate salt]", "values": [{"measurement": "life spans", "setting": "NMDA receptor [3]; Ifenprodil 9 mg/Kg/day, CBE (25 mg/kg day)-treated A/J mice, daily from P8", "value": "showed increments in the life spans"}]}
{"compound": "C[C@]12N[C@H](Cc3ccccc31)c1ccccc12", "note": "[MK-801]", "values": [{"measurement": "survival", "setting": "NMDA receptor [3]; MK-801 0.3 mg/Kg/day, CBE-treated (25 mg/Kg/day) C3H mice, daily from P8", "value": "extended the survival"}]}
{"compound": "N[C@@H]1CONC1=O", "note": "[D-cycloserine]", "values": [{"measurement": "life spans", "setting": "NMDA receptor [3]; D-cycloserine 200 mg/kg/day, CBE-treated (25 mg/kg day) long living strains BALB/cJ, FVB/NJ, 129S1/SvImJ, BTBR T+ Itpr3tf/J, daily from P8", "value": "reduced the life spans"}]}
